We go through seven compounds from patent US20110312894A1 (priority 2009, published 2011).

Broadly, the IC50 is the concentration needed to halve the response being measured.

Like-named read-outs stand apart in the source and are kept apart here.

The target of assay [1] is T1, heteromeric α7β2-nAChRs on MS/DB cholinergic neurons (Rattus norvegicus, UniProt P12390+Q05941).
T1 construct: functional nAChRs naturally expressed on rat MS/DB cholinergic neurons; endogenous in cells; host or cells: acutely dissociated MS/DB neurons of 2-4 week-old Wistar rats
T1 sequence (Q05941 23-502): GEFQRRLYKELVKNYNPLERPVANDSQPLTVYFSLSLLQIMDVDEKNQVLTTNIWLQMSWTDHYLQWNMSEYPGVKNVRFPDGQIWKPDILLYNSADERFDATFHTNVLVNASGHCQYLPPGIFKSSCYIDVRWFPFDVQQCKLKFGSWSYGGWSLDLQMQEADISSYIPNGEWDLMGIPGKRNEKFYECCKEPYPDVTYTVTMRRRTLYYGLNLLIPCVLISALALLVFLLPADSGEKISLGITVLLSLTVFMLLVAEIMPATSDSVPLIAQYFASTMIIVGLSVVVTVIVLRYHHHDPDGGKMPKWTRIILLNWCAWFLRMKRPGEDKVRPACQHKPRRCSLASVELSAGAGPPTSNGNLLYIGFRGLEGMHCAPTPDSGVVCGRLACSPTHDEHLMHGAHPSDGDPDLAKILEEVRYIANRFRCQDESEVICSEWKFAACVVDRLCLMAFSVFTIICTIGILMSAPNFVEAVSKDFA
T1 sequence (P12390 25-500): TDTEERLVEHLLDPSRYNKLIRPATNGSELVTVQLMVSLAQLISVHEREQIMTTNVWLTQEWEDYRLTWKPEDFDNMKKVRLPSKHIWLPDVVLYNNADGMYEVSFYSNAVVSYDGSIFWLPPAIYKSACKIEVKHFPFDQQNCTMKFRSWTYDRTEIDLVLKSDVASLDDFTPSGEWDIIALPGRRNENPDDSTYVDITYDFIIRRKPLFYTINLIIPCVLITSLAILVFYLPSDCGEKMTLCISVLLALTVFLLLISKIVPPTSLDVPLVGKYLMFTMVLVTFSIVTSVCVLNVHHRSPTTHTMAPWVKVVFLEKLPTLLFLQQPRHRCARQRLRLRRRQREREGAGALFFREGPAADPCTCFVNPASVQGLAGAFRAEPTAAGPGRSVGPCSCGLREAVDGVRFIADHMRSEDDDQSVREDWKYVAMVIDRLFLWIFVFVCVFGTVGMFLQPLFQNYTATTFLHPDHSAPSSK
The assay is classed as cell-based. As to conditions: for form-dependent suppression of choline-induced responses: 1 nM of the peptide form. How it is done:
(§1) Briefly, each postnatal 2-4 week-old Wistar rat or mouse (wild-type C57/B16 or nAChR β2 knockout mice on a C57/B16 background kindly provided by Dr. Marina Picciotto, Yale University) was anesthetized using isoflurane, and the brain was rapidly removed. Several 400-μm coronal slices, which contained the medial septum/diagonal band (MS/DB) or the ventral tegmental area (VTA), were cut using a vibratome (Vibratorne 1000 plus; Jed Pella Inc., Redding, Calif.) in cold (2-4° C.) artificial cerebrospinal fluid (ACSF) and continuously bubbled with carbogen (95% O2-5% CO2). The slices were then incubated in a pre-incubation chamber (Warner Ins., Holliston, Mass.) and allowed to recover for at least 1 h at room temperature ([…]) in oxygenated ACSF. Thereafter, the slices were treated with pronase (1 mg/6 mL) at 31° C. for 30 min and subsequently treated with the same concentration of thermolysin for another 30 min. The MS/DB or VTA region was micropunched out from the slices using a well-polished needle. […] In particular, perforated-patch recording was used to maintain the intracellular ATP concentration at a physiological level. To prepare for perforated-patch whole-cell recording, glass microelectrodes (GC-1.5; Narishige, East Meadow, N.Y.) were fashioned on a two-stage vertical pipette puller (P-830; Narishige, East Meadow, N.Y.), and the resistance of the electrode was 3 to 5 MΩ when filled with the internal solution. A tight seal (>2 GΩ) was formed between the electrode tip and the cell surface, which was followed by a transition from on-cell to whole-cell recording mode due to the partitioning of amphotericin B into the membrane underlying the patch. After whole-cell formation, an access resistance lower than 60 MΩ was acceptable during perforated-patch recordings in current-clamp mode, and an access resistance lower than 30 MΩ was acceptable during voltage-clamp recordings. The series resistance was not compensated in the experiments using dissociated neurons. Under current-clamp configuration, membrane potentials were measured using a patch-clamp amplifier (200B; Axon Instruments, Foster City, Calif.). […] All experiments were performed at room temperature (22±1° C.).

In assay [2] the target is T2, homomeric α7-nAChRs on VTA DAergic neurons (Rattus norvegicus, UniProt Q05941).
T2 construct: native nAChR responses in rat MS/DB or VTA neurons; endogenous in cells; host or cells: acutely dissociated VTA dopaminergic neurons of Wistar rats
T2 sequence (Q05941 23-502): as the sequence (Q05941 23-502) above
The class given is cell-based. As to the method: as §1

For assay [3], the target named is T3, heterologously expressed heteromeric α7β2-nAChRs (Rattus norvegicus, UniProt P12390+Q05941).
T3 construct: expressed in transfected cells; host or cells: Xenopus laevis oocytes injected with cRNA (vector pGEMHE)
T3 sequence (Q05941 23-502): as above
T3 sequence (P12390 25-500): as the sequence (P12390 25-500) above
The assay is classed as cell-based. As to conditions: oocytes; 10 mM choline; compared with homomeric α7-nAChR. As to the method: The frogs were then allowed to recover from surgery before being returned to the incubation tank. The lobes were cut into small pieces and digested with 0.08 Wunsch U/mL liberase blendzyme 3 (Roche Applied Science, Indianapolis, Ind.) with constant stirring at room temperature for 1.5-2 h. The dispersed oocytes were thoroughly rinsed with incubation solution. Stage VI oocytes were selected and incubated at 16° C. before injection. Micropipettes used for injection were pulled from borosilicate glass (Drummond Scientific, Broomall, Pa.). cRNAs encoding α7 or β2 at proper dilution were injected into oocytes separately or in different ratios using a Nanoject microinjection system (Drummond Scientific, Broomall, Pa.) at a total volume of ˜20-60 nL.
The chamber was grounded through an agarose bridge. The oocytes were voltage-clamped at −70 mV to measure ACh (or choline)-induced currents using GeneClamp 500B (Axon Instruments, Foster City, Calif.).

The target in assay [4] is T4, α7-containing-nAChRs on MS/DB neurons from nAChR β2 knockout mice (Mus musculus, UniProt P49582).
T4 construct: endogenous in cells; host or cells: acutely dissociated MS/DB neurons of nAChR β2 subunit knockout mice (C57/Bl6 background)
T4 sequence (P49582 23-502): as the sequence (Q05941 23-502) above, with A402T counted along it
The class given is cell-based.
Procedure: (§3) Briefly, each postnatal 2-4 week-old Wistar rat or mouse (wild-type C57/B16 or nAChR β2 knockout mice on a C57/B16 background kindly provided by Dr. Marina Picciotto, Yale University) was anesthetized using isoflurane, and the brain was rapidly removed. Several 400-μm coronal slices, which contained the medial septum/diagonal band (MS/DB) or the ventral tegmental area (VTA), were cut using a vibratome (Vibratorne 1000 plus; Jed Pella Inc., Redding, Calif.) in cold (2-4° C.) artificial cerebrospinal fluid (ACSF) and continuously bubbled with carbogen (95% O2-5% CO2). The slices were then incubated in a pre-incubation chamber (Warner Ins., Holliston, Mass.) and allowed to recover for at least 1 h at room temperature (22±PC) in oxygenated ACSF. Thereafter, the slices were treated with pronase (1 mg/6 mL) at 31° C. for 30 min and subsequently treated with the same concentration of thermolysin for another 30 min. The MS/DB or VTA region was micropunched out from the slices using a well-polished needle. […] In particular, perforated-patch recording was used to maintain the intracellular ATP concentration at a physiological level. […] Under current-clamp configuration, membrane potentials were measured using a patch-clamp amplifier (200B; Axon Instruments, Foster City, Calif.). […]

The test system of another assay is MS/DB neurons. Description: Current-clamp recording of spontaneous action potential firing in dissociated MS/DB neurons. The assay is classed as cell-based, rat. As to conditions: 1 μM.
Assay [5] has as its target T5, α7β2-nAChRs on MS/DB neurons from wild-type mice (Mus musculus, UniProt P49582+Q9ERK7).
T5 construct: heteromeric α7β2-nAChRs exist in rodent basal forebrain cholinergic neurons; endogenous in cells; host or cells: acutely dissociated MS/DB neurons of wild-type C57/Bl6 mice
The assay is described as follows: Whole-cell current recordings, MS/DB neurons from wild-type mice. The assay is classed as cell-based. As to conditions: 1 nM peptide.
Procedure: as §3

The test system of another assay is GABAA receptors. Description: GABA-induced whole-cell currents in rat MS/DB cholinergic neurons. The assay is classed as cell-based. As to conditions: 1 nM peptide; 0.1 mM GABA. How it is done: (§2) Briefly, each postnatal 2-4 week-old Wistar rat or mouse (wild-type C57/B16 or nAChR β2 knockout mice on a C57/B16 background kindly provided by Dr. Marina Picciotto, Yale University) was anesthetized using isoflurane, and the brain was rapidly removed. Several 400-μm coronal slices, which contained the medial septum/diagonal band (MS/DB) or the ventral tegmental area (VTA), were cut using a vibratome (Vibratorne 1000 plus; Jed Pella Inc., Redding, Calif.) in cold (2-4° C.) artificial cerebrospinal fluid (ACSF) and continuously bubbled with carbogen (95% O2-5% CO2). The slices were then incubated in a pre-incubation chamber (Warner Ins., Holliston, Mass.) and allowed to recover for at least 1 h at room temperature ([…]) in oxygenated ACSF. Thereafter, the slices were treated with pronase (1 mg/6 mL) at 31° C. for 30 min and subsequently treated with the same concentration of thermolysin for another 30 min. The MS/DB or VTA region was micropunched out from the slices using a well-polished needle. […] In particular, perforated-patch recording was used to maintain the intracellular ATP concentration at a physiological level. […] Under current-clamp configuration, membrane potentials were measured using a patch-clamp amplifier (200B; Axon Instruments, Foster City, Calif.). […]

The subject of assay [6] is ionotropic glutamate receptors. Description: Glutamate-induced whole-cell currents in rat MS/DB cholinergic neurons. The assay is classed as cell-based. As to conditions: 1 nM peptide; 1 mM glutamate. As to the method: as §2

T5 sequence (P49582 23-502): as the sequence (Q05941 23-502) above, with A402T counted along it
T5 sequence (Q9ERK7 26-501): as the sequence (P12390 25-500) above, with A350T, V371M, R379Q, T383A, P387L, V391M, V449I, P468S counted along it

As for `CO[C@H]1CC=C2CCN3CCC4=C(CC(=O)OC4)[C@]23C1` [DHβE, dihydro-β-erythroidine], the “Hill coefficient, inhibition of choline-induced currents” value in assay [1] (10 mM choline, MS/DB neurons, n=8) turned out to be 0.9; in assay [2] (10 mM choline, VTA neurons), 0.3. Also, the IC50 in assay [1] (10 mM choline, MS/DB neurons, n=8, read-out: IC50, inhibition of choline-induced currents) is 170 nM; in assay [2] (10 mM choline, VTA neurons, n=7, read-out: IC50, inhibition of choline-induced currents), over 100000 nM. For the same compound, the “potency difference as inhibitor of choline-induced current, MS/DB vs VTA neurons” value in assay [1] (MS/DB neurons compared with VTA neurons) is given as about 500 fold. Besides, the “sensitivity to functional blockade, α7β2- vs α7-nAChR” value in assay [3] was “more sensitive”. The “sensitivity of choline-induced currents to antagonist” value in assay [4] (MS/DB neurons from β2 knockouts compared with wild-type) is listed as “lower sensitivity”.
In the case of `CNCC/C=C/c1cccnc1` [RJR-2403], the “agonist-evoked inward current compared with ACh-induced response” value in assay [1] is given as “insensitive”. Further, in assay [2], the “agonist-evoked current compared with ACh-induced response” value is “mimicked”.
With `C[C@@H]1O[C@H](C[N+](C)(C)C)C[C@H]1O` [muscarine], the “effect on spontaneous action potential firing” value in the assay on MS/DB neurons is given as “insensitive”.
Consider “Aβ1-42: amyloid beta peptides at positions 1-42 of the amyloid precursor protein, purchased from rPeptide”, for which the “effect on choline-induced currents” value in assay [1] was “progressively inhibited with time”; in assay [1] (0.1 nM peptide, MS/DB neurons), “negligible”; in assay [2] (1 nM peptide, VTA DAergic neurons), “not sensitive”; in assay [5] it was “did suppress”; in assay [4] (1 nM peptide, MS/DB neurons from β2−/− mice) it was “failed to suppress”. In addition, the “effect on ACh-induced current” value in assay [1] (1 nM peptide, 1 mM ACh, MS/DB neurons) was “evident”. In addition, the “reversibility of inhibition of choline responses” value in assay [1] (1 nM, recovery after 6 min of peptide washout) is given as “reversibly”. Moreover, the “inhibition of GABA-induced currents” value in the assay with GABAA receptors is listed as “insensitive”. Moreover, in assay [6], the “inhibition of glutamate-induced currents” value is “insensitive”.
As to “fibrillar Aβ: Aβ1-42 stock incubated at 37° C. for 48 h at pH 6.0, predominantly fibrillar form”, the “form-dependent suppression of choline-induced responses” value in assay [1] (MS/DB neurons) is “weaker inhibitory effect”.
Consider “monomeric Aβ1-42: Aβ1-42 reconstituted in DMSO, predominant monomeric form”, for which, in assay [1] (MS/DB neurons), the “form-dependent suppression of choline-induced responses” value is given as “failed to suppress”.
Same read-out and setting: for “oligomeric Aβ1-42: Aβ1-42 reconstituted in distilled water, predominantly oligomeric form” the value was “greatest suppression”.
